Activity calls are given as the source filed them. The calls are words filed in the database; no cut-off is given here.
Columns and labels:
[1] = Dark toxicity in human HBE cells assessed as cell viability incubated for 24 hrs in dark by MTT assay; type: cell-based
[2] = Induction of type-1 ROS generation in tetrahydrofuran at 0.5 uM followed by LED white light irradiation at 1.8 mWcm/2 for 300 sec by DCFH staining based analysis; type: functional
[3] = Induction of type-1 ROS generation in tetrahydrofuran assessed as increase in singlet oxygen production by measuring ABDA absorption peak at 0.5 uM followed by LED white light irradiation at 1.8 mWcm/2 for 300 sec by DCFH staining based analysis; type: functional
[4] = Photophysical property of the compound assessed as fluorescence quantum yield; type: physicochemical
[5] = Induction of type-1 ROS generation in tetrahydrofuran assessed as fold increase in DHR123 fluorescence intensity at 0.5 uM followed by LED white light irradiation at 1.8 mWcm/2 for 300 sec by DCFH staining based analysis; type: functional
[6] = Induction of type-1 ROS generation in methanol assessed as generation of O2 at 0.5 uM followed by Xe lamp irradiation for 5 mins by DCFH staining based analysis; type: functional
[7] = Induction of type-1 ROS generation in methanol assessed as generation of OH at 0.5 uM followed by Xe lamp irradiation for 5 mins by DCFH staining based analysis; type: functional

Fluorescence quantum yield [4] | SMILES | Activity [1] | Activity [2] | Activity [3] | fold change (FC) [5] | Activity [6] | Activity [7]
0.16 | CCN(CC)c1ccc2cc(C(=O)/C=C/c3cc4c(cc3OC)N3Cc5cc(Br)c(OC)cc5N(C4)C3)c(=O)oc2c1 | Toxic | Active | inactive | 17.4 |  | 
0.16 | CN(C)c1ccc2cc(C(=O)/C=C/c3ccc4c(c3)CN3CN4Cc4cc(Br)ccc43)c(=O)oc2c1 | Toxic | Active |  | 25.5 | Active | Active

Reference: ChEMBL document CHEMBL6096699, “Tröger's Base as a Potential Bridge to Type-I Photosensitizers: Mechanism and Antitumor Applications” (J Med Chem, 2025)
